Measured values taken from BindingDB's records for doi:10.7270/Q2Q52N82 (The Scripps Research Institute Molecular Screening Center, 2012).

Molecular target: ADP-ribosylation factor GTPase-activating protein 1 (Rattus norvegicus, UniProt Q62848)
Sequence (Q62848 whole entry): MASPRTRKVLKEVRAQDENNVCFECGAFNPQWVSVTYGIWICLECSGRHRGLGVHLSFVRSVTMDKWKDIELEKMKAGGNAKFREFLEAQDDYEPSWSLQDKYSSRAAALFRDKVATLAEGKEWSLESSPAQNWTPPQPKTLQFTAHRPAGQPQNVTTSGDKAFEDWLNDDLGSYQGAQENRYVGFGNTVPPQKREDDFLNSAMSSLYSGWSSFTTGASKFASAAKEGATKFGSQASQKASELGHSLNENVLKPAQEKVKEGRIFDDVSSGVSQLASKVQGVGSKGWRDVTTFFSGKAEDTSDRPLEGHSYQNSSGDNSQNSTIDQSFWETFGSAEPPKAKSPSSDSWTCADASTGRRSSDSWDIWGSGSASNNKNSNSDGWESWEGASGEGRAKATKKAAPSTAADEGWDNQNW

SMILES	IC50
CC(C)=CCC/C(C)=C/Cc1c(O)ccc(C(=O)/C=C/c2ccc(O)cc2)c1O	> 165 µM
Cc1ccc2nc(SCC(=O)c3ccc(Cl)cc3)nc(=O)n2c1	> 165 µM
C=CCNc1nc(NCc2cccc(OC)c2)c2sc(-c3ccccc3)cc2n1 [N4-[(3-methoxyphenyl)methyl]-6-phenyl-N2-prop-2-enyl-thieno[3,2-d]pyrimidine-2,4-diamine]	> 165 µM
c1ccc(-c2cc(-c3nnc4sc(-c5ccccn5)nn34)[nH]n2)cc1 [3-(3-phenyl-1H-pyrazol-5-yl)-6-(2-pyridinyl)-[1,2,4]triazolo[3,4-b][1,3,4]thiadiazole]	> 165 µM
O=C(Nc1ccc(CN2CCOCC2)cc1)c1ccc(-c2cc(Cl)ccc2Cl)o1 [5-(2,5-dichlorophenyl)-N-[4-(4-morpholinylmethyl)phenyl]-2-furamide]	> 165 µM
COc1ccc(-c2cc3ccccc3oc2=O)cc1NC(=O)c1cccnc1 [N-[2-methoxy-5-(2-oxidanylidenechromen-3-yl)phenyl]pyridine-3-carboxamide]	> 165 µM
CCC(/C=C1\Sc2ccc(OC)cc2N1CCO)=C\c1sc2ccc(OC)cc2[n+]1CCO	> 165 µM
CC1CC(C)CN(C(=O)COC(=O)c2cc3ccccc3cc2O)C1 (stereo not given) [[2-(3,5-dimethylpiperidin-1-yl)-2-oxidanylidene-ethyl] 3-oxidanylnaphthalene-2-carboxylate]	> 165 µM
CCOc1ccc2oc(C(=O)OCC(=O)N3CC(C)OC(C)C3)c(C)c2c1 (stereo not given) [[2-(2,6-dimethylmorpholin-4-yl)-2-oxoethyl] 5-ethoxy-3-methyl-1-benzofuran-2-carboxylate]	> 165 µM
C=c1cc2[nH]c(=O)c(=Cc3ccc(-c4cccc(Cl)c4)o3)c(=N)n2o1 [(6Z)-6-[[5-(3-chlorophenyl)-2-furanyl]methylidene]-7-imino-2-methyl-5-isoxazolo[2,3-a]pyrimidinone]	> 2.03 µM

Continued, values first:

IC50	SMILES
50.7 µM	O=NCc1ccc2noc(-c3ccc(Cl)cc3)c2c1 [SMR000549694]
> 165 µM	CC(=O)c1cccc(NC(=O)c2cccc3c(-c4cnn(C)c4)coc23)c1 [MLS003120506]
> 165 µM	COCC(C)n1c(C)cc(C(=O)CN2c3cccc4cccc(c34)S2(=O)=O)c1C (stereo not given) [MLS002169376]
> 18.3 µM	CN(C)CCNC(=O)c1ccc(-c2cn3c(-c4ccc(Oc5ccccc5)cc4)cnc3cn2)cc1 [MLS003123272]
> 18.3 µM	Cc1ccc2nc(SCC(=O)Nc3cccc(Cl)c3)nc(=O)n2c1 [MLS001234985]
